For seven compounds, IC50, EC50 and AC50 results are on record in ChEMBL document CHEMBL1201862, “PubChem BioAssay data set” (2004).

Usually IC50 stands for the concentration that inhibits the measured activity by half. What is called EC50 is the concentration that produces a half-maximal response. As a reminder, the AC50 is the concentration giving half of the maximal activity seen.

The source made the active and inactive calls. Some results are limits rather than exact numbers.

For assay [1], the target named is T1, Sentrin-specific protease 8 (Homo sapiens, UniProt Q96LD8).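 Note: luminescence read-out of SENP8 inhibition, dose-response confirmation following an ultra-high-throughput screen.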
T1 sequence (Q96LD8 whole entry): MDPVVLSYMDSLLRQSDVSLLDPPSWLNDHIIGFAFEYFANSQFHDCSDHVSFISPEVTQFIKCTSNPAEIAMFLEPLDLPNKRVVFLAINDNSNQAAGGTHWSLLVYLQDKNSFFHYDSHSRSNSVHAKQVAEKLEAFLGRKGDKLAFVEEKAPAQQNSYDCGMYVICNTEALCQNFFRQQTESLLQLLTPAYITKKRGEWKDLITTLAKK
The class given is functional.

A short description of assay [2]: viability of PTEN-deleted HCT116 cells – cell-based, HCT116 PTEN knockout, dose response (AID 1047).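 Note: HCT116 colon tumor cells with PTEN knocked out; cells exposed to compound for 60 hours before readout; potency for loss of cell viability measured by luminescence.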 The class given is functional.
Assay [3] deals with T2, Apoptotic protease-activating factor 1 (Homo sapiens, UniProt O14727).
T2 sequence (O14727 whole entry): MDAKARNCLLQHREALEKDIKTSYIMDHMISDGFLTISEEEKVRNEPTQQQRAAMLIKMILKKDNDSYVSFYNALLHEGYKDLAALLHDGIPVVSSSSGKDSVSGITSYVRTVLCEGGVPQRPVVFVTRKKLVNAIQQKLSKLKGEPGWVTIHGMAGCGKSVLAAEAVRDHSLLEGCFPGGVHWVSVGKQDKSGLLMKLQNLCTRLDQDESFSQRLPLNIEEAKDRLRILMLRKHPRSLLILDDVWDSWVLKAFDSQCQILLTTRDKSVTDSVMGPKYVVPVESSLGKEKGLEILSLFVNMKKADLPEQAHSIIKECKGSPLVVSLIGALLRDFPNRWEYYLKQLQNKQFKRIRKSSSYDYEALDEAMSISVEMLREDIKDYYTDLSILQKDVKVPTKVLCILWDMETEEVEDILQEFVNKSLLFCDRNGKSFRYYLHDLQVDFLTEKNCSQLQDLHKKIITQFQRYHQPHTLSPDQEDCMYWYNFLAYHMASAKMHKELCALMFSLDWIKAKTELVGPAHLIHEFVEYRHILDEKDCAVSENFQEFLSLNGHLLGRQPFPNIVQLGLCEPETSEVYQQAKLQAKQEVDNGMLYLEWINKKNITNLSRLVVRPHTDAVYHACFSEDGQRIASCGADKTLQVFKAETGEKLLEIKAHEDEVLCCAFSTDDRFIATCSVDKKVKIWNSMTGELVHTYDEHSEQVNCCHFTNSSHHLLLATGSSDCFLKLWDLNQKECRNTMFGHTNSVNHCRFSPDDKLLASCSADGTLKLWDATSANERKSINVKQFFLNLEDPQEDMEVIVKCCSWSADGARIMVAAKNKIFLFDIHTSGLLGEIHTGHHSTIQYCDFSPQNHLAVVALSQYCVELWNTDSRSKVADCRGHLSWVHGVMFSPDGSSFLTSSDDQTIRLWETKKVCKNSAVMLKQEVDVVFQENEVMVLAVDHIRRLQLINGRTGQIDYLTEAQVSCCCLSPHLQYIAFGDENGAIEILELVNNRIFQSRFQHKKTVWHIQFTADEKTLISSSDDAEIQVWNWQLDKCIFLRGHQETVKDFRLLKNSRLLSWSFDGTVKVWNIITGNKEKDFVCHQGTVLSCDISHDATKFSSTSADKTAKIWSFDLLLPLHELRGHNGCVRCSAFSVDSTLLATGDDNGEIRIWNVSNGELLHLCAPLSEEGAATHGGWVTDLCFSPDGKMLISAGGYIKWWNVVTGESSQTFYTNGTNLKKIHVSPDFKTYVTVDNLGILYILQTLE
The class given is functional.

Assay [4] is described as follows: viability of HCT116 lacking mutant beta-catenin – cell-based, human colon tumor, dose response (AID 1045).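 Note: HCT116 colon tumor cells with beta catenin knocked out; cells exposed to compound for 60 hours.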 Format: functional.
Assay [5] addresses T3, Tyrosyl-DNA phosphodiesterase 2 (Homo sapiens, UniProt O95551).
T3 sequence (O95551 whole entry): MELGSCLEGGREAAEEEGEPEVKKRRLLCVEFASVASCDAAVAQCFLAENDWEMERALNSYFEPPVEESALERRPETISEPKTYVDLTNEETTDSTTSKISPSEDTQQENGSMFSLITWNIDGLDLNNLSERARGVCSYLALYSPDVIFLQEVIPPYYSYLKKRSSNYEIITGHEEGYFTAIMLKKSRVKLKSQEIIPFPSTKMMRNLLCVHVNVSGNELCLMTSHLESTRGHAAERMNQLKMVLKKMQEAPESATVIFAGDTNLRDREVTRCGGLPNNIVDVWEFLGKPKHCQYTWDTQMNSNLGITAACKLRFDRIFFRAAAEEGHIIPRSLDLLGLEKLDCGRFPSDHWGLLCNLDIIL
Nature of the assay: potency against TDP2 phosphodiesterase activity – biochemical, epi absorbance, IC50, dose response (AID 743297).

The target in assay [6] is T4, Replicative DNA helicase DnaB (Mycobacterium tuberculosis, UniProt P9WMR3).
T4 sequence (P9WMR3 whole entry): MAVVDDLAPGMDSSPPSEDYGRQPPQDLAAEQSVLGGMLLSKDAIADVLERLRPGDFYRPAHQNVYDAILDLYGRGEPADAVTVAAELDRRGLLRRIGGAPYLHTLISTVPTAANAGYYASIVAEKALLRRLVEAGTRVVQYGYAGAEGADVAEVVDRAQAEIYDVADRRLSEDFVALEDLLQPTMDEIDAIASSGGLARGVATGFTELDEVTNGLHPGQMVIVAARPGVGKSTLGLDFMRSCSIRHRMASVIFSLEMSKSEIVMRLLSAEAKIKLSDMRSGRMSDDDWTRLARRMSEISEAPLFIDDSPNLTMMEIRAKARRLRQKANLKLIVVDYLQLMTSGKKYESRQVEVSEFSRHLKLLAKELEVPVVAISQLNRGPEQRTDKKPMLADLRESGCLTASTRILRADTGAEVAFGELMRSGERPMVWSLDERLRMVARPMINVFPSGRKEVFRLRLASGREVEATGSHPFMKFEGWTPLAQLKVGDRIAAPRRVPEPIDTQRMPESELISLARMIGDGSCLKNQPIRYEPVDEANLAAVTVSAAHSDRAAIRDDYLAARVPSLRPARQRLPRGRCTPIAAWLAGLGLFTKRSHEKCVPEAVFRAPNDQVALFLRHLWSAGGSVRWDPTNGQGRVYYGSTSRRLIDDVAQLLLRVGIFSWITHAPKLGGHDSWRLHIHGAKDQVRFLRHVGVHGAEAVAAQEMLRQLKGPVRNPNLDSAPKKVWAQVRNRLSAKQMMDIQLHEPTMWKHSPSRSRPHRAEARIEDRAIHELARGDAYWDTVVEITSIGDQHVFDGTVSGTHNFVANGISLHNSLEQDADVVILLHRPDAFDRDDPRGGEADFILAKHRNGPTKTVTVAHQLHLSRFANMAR
Nature of the assay: DnaB intein splicing inhibitors, dose response, biochemical, cell-free fluorescence (AID 449749). The class given is functional.

Regarding `Cc1ccc(C(=O)c2c(C)oc3c2C(=O)C(=O)c2ccccc2-3)cc1`, the half-inhibitory concentration (IC50) in assay [1] is 7.82 µM (active); in assay [3] it was 8.09 µM (active). Also, the results for the EC50 in assay [2] and in assay [4] were 3.11 µM (active) and 2.66 µM (active), respectively.

As for `Nc1ccc(Br)c2cccnc12`, the IC50 is 10 µM (active) in assay [1], 39.1 µM (active) in assay [3] and 75.5 µM (inactive) in assay [5].

On to `Cc1ccc(Nc2cc(C)nn2-c2nc(C)cc(O)n2)cc1`, for which, in assay [6], the AC50 was 13.6 µM (active).

In the case of `Cc1cnc(NC(=O)c2sc3ccccc3c2Cl)s1`, the 50% inhibitory concentration (IC50) in assay [1] was 2.56 µM (active).

Take `O=C1C(O)=C/C(=N\c2ccccc2O)c2ccccc21`: the IC50 in assay [1] was 5.23 µM (active); in assay [3], 2.61 µM (active); in assay [5], 37.7 µM (inactive). The AC50 in assay [6] is 27.4 µM (active).

With `O=C1C(Cl)=C(NCc2cccnc2)C(=O)c2ccccc21`, the IC50 in assay [3] is 10.1 µM (active). The concentration at half-maximal activity (AC50) in assay [6] is 4.75 µM (active).

With `CN(C)c1ncc(C2=C(Cl)C(=O)C(N3CCCC3)=C(Cl)C2=O)s1`, the EC50 in assay [2] was 5.41 µM (active); in assay [4], 6.06 µM (active). Moreover, the IC50 in assay [3] was 25 µM (active). Also, the AC50 in assay [6] was > 380 µM (inactive).
